One test has as its target K-Ras G12V (Homo sapiens, UniProt P01116, G12V). The test is described as follows: SOS1 catalyzed nucleotide exchange assay (GDP form K-Ras), K-Ras G12V. Conditions: read-out: K-Ras G12V GDP Biochemical Activity (IC50).
In the next test the target is K-Ras WT (Homo sapiens, UniProt P01116). Kind of test: SOS1 catalyzed nucleotide exchange assay (GDP form K-Ras), K-Ras WT. Conditions: read-out: K-Ras WT GDP Biochemical Activity (IC50).
For another test, the target named is K-Ras G12D (Homo sapiens, UniProt P01116, G12D). The test is described as follows: biochemical.
Sequence of K-Ras G12D (P01116 1-169 isoform P01116-2 G12D): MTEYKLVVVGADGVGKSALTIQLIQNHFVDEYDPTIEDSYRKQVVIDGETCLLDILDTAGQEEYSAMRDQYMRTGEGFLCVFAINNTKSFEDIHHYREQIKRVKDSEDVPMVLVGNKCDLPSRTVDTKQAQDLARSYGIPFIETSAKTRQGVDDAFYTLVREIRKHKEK

Sequence of K-Ras WT (P01116 1-169 isoform P01116-2): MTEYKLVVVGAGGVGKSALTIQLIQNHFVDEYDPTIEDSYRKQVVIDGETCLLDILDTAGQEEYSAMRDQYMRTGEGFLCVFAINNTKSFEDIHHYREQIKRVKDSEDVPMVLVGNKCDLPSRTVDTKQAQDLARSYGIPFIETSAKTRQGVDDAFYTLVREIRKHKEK
Sequence of K-Ras G12V (P01116 1-169 isoform P01116-2 G12V): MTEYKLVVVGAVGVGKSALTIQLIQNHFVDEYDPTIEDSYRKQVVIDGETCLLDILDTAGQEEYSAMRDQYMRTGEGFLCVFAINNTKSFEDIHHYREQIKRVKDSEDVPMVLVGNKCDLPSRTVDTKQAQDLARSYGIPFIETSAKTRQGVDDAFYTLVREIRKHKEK

Turning to `C#Cc1c(F)ccc2cc(OC(=O)N(C)C)cc(-c3ncc4c(N5CCCOCC5)nc(OC[C@@]56CCCN5C[C@H](F)C6)nc4c3F)c12` [Compound 4, 5-ethynyl-6-fluoro-4-(8-fluoro-2-(((2R,7aS)-2-fluorotetrahydro-1H-pyrrolizin-7a(5H)-yl)methoxy)-4-(1,4-oxazepan-4-yl)pyrido[4,3-d]pyrimidin-7-yl)naphthalen-2-yl dimethylcarbamate], the IC50 on K-Ras G12V came out at 1000 nM; at K-Ras WT, 479 nM; on K-Ras G12D it was 127 nM.

Take `C#Cc1c(F)ccc2cc(OC(=O)CCCCCCCCCCCCCCC)cc(-c3ncc4c(N5CCCOCC5)nc(OC[C@@]56CCCN5C[C@H](F)C6)nc4c3F)c12` [Compound 6, 5-ethynyl-6-fluoro-4-(8-fluoro-2-(((2R,7aS)-2-fluorotetrahydro-1H-pyrrolizin-7a(5H)-yl)methoxy)-4-(1,4-oxazepan-4-yl)pyrido[4,3-d]pyrimidin-7-yl)naphthalen-2-yl palmitate trifluoroacetic acid]: the figures for the IC50 at K-Ras G12V, at K-Ras WT and on K-Ras G12D were 25 nM, 39.7 nM and 21.2 nM, respectively.

With `C#Cc1c(F)ccc2cc(OC(=O)CCCC[C@@H]3SC[C@@H]4NC(=O)N[C@@H]43)cc(-c3ncc4c(N5CCCOCC5)nc(OC[C@@]56CCCN5C[C@H](F)C6)nc4c3F)c12` [Compound 63, 5-ethynyl-6-fluoro-4-(8-fluoro-2-(((2R,7aS)-2-fluorotetrahydro-1H-pyrrolizin-7a(5H)-yl)methoxy)-4-(1,4-oxazepan-4-yl)pyrido[4,3-d]pyrimidin-7-yl)naphthalen-2-yl 5-((3aS,4S,6aR)-2-oxohexahydro-1H-thieno[3,4-d]imidazol-4-yl)pentanoate trifluoroacetic acid], the concentration for half-maximal inhibition (IC50) was determined as 1.63 nM at K-Ras G12V and 1.22 nM against K-Ras G12D.

For the compound `C#Cc1c(F)ccc2cc(B(O)O)cc(-c3ncc4c(N5CCCOCC5)nc(OC[C@@]56CCCN5C[C@H](F)C6)nc4c3F)c12` [Compound 90], the IC50 on K-Ras G12V turned out to be 26.5 nM; at K-Ras WT, 19.8 nM; against K-Ras G12D, 27.2 nM.

Regarding `C#Cc1c(F)ccc2cc(OC(=O)[C@H](Cc3c[nH]c4ccccc34)NC(C)=O)cc(-c3ncc4c(N5CCCOCC5)nc(OC[C@@]56CCCN5C[C@H](F)C6)nc4c3F)c12` [Compound 44, 5-ethynyl-6-fluoro-4-(8-fluoro-2-(((2R,7aS)-2-fluorotetrahydro-1H-pyrrolizin-7a(5H)-yl)methoxy)-4-(1,4-oxazepan-4-yl)pyrido[4,3-d]pyrimidin-7-yl)naphthalen-2-yl acetyl-L-tryptophanate trifluoroacetic acid], the results for the IC50 at K-Ras G12V and against K-Ras G12D were 0.862 nM and 1.46 nM, respectively.

As to `C#Cc1c(F)ccc2cc(OC(=O)C(C)C)cc(-c3ncc4c(N5CCCOCC5)nc(OC[C@@]56CCCN5C[C@H](F)C6)nc4c3F)c12` [Compound 45, 5-ethynyl-6-fluoro-4-(8-fluoro-2-(((2R,7aS)-2-fluorotetrahydro-1H-pyrrolizin-7a(5H)-yl)methoxy)-4-(1,4-oxazepan-4-yl)pyrido[4,3-d]pyrimidin-7-yl)naphthalen-2-yl isobutyrate trifluoroacetic acid], the IC50 on K-Ras G12V was 4.96 nM; at K-Ras WT, 2.52 nM; against K-Ras G12D, 2.37 nM.

In the case of `C#Cc1c(F)ccc2cc(OC(=O)/C=C/c3ccccc3)cc(-c3ncc4c(N5CCCOCC5)nc(OC[C@@]56CCCN5C[C@H](F)C6)nc4c3F)c12` [Compound 48, 5-ethynyl-6-fluoro-4-(8-fluoro-2-(((2R,7aS)-2-fluorotetrahydro-1H-pyrrolizin-7a(5H)-yl)methoxy)-4-(1,4-oxazepan-4-yl)pyrido[4,3-d]pyrimidin-7-yl)naphthalen-2-yl cinnamate trifluoroacetic acid], the IC50 was determined as 4.32 nM at K-Ras G12V and 5.86 nM against K-Ras G12D.

On to `C#Cc1c(F)ccc2cc(OCOC)cc(-c3ncc4c(N5CCCOC[C@@H]5C)nc(OC[C@@]56CCCN5C[C@H](F)C6)nc4c3F)c12` [Compound 69, (S)-4-(7-(8-ethynyl-7-fluoro-3-(methoxymethoxy)naphthalen-1-yl)-8-fluoro-2-(((2R,7aS)-2-fluorotetrahydro-1H-pyrrolizin-7a(5H)-yl)methoxy)pyrido[4,3-d]pyrimidin-4-yl)-3-methyl-1,4-oxazepane trifluoroacetic acid], for which the IC50 on K-Ras G12V was 202 nM; against K-Ras G12D it was 119 nM.

For the compound `C#Cc1c(F)ccc2cc(OC(=O)[C@@H](N)C(C)C)cc(-c3ncc4c(N5CCCOCC5)nc(OC[C@@]56CCCN5C[C@H](F)C6)nc4c3F)c12` [Compound 60, 5-ethynyl-6-fluoro-4-(8-fluoro-2-(((2R,7aS)-2-fluorotetrahydro-1H-pyrrolizin-7a(5H)-yl)methoxy)-4-(1,4-oxazepan-4-yl)pyrido[4,3-d]pyrimidin-7-yl)naphthalen-2-yl L-valinate trifluoroacetic acid], the figures for the IC50 on K-Ras G12V and on K-Ras G12D were 1.32 nM and 0.664 nM, respectively.

On to `C#Cc1c(F)ccc2cc(OC(=O)C(c3ccccc3)N(C)C)cc(-c3ncc4c(N5CCCOCC5)nc(OC[C@@]56CCCN5C[C@H](F)C6)nc4c3F)c12` (stereo partly drawn) [Compound 59, 5-ethynyl-6-fluoro-4-(8-fluoro-2-(((2R,7aS)-2-fluorotetrahydro-1H-pyrrolizin-7a(5H)-yl)methoxy)-4-(1,4-oxazepan-4-yl)pyrido[4,3-d]pyrimidin-7-yl)naphthalen-2-yl 2-(dimethylamino)-2-phenylacetate trifluoroacetic acid], for which the IC50 was found to be 1.34 nM at K-Ras G12V and 0.866 nM against K-Ras G12D.

As to `C#Cc1c(F)ccc2cc(OC(=O)c3c(C)cccc3N)cc(-c3ncc4c(N5CCCOCC5)nc(OC[C@@]56CCCN5C[C@H](F)C6)nc4c3F)c12` [Compound 70, 5-ethynyl-6-fluoro-4-(8-fluoro-2-(((2R,7aS)-2-fluorotetrahydro-1H-pyrrolizin-7a(5H)-yl)methoxy)-4-(1,4-oxazepan-4-yl)pyrido[4,3-d]pyrimidin-7-yl)naphthalen-2-yl 2-amino-6-methylbenzoate trifluoroacetic acid], the values for the IC50 at K-Ras G12V and against K-Ras G12D were 27.1 nM and 30 nM, respectively.

For `C#Cc1c(F)ccc2cc(OC(=O)OCC)cc(-c3ncc4c(N5CCCOCC5)nc(OC[C@@]56CCCN5C[C@H](F)C6)nc4c3F)c12` [Compound 5, ethyl (5-ethynyl-6-fluoro-4-(8-fluoro-2-(((2R,7aS)-2-fluorotetrahydro-1H-pyrrolizin-7a(5H)-yl)methoxy)-4-(1,4-oxazepan-4-yl)pyrido[4,3-d]pyrimidin-7-yl)naphthalen-2-yl) carbonate], the IC50 at K-Ras G12V was determined as 4.18 nM; on K-Ras WT it was 2.71 nM; against K-Ras G12D, 2.93 nM.

For the compound `C#Cc1c(F)ccc2cc(OS(=O)(=O)c3ccc([N+](=O)[O-])cc3)cc(-c3ncc4c(N5CCCOCC5)nc(OC[C@@]56CCCN5C[C@H](F)C6)nc4c3F)c12` [Compound 56, 5-ethynyl-6-fluoro-4-(8-fluoro-2-(((2R,7aS)-2-fluorotetrahydro-1H-pyrrolizin-7a(5H)-yl)methoxy)-4-(1,4-oxazepan-4-yl)pyrido[4,3-d]pyrimidin-7-yl)naphthalen-2-yl 4-nitrobenzenesulfonate trifluoroacetic acid], the IC50 at K-Ras G12V turned out to be 3.91 nM; on K-Ras G12D, 4.69 nM.

For the compound `C#Cc1c(F)ccc2cc(OC(=O)CC[C@@H](C)[C@H]3CC[C@H]4[C@@H]5[C@H](O)C[C@@H]6C[C@H](O)CC[C@]6(C)[C@H]5C[C@H](O)[C@]34C)cc(-c3ncc4c(N5CCCOCC5)nc(OC[C@@]56CCCN5C[C@H](F)C6)nc4c3F)c12` [Compound 62, 5-ethynyl-6-fluoro-4-(8-fluoro-2-(((2R,7aS)-2-fluorotetrahydro-1H-pyrrolizin-7a(5H)-yl)methoxy)-4-(1,4-oxazepan-4-yl)pyrido[4,3-d]pyrimidin-7-yl)naphthalen-2-yl (R)-4-((3R,5S,7R,8R,9S,10S,12S,13R,14S,17R)-3,7,12-trihydroxy-10,13-dimethylhexadecahydro-1H-cyclopenta[a]phenanthren-17-yl)pentanoate trifluoroacetic acid], the IC50 was 6.51 nM at K-Ras G12V and 4.13 nM against K-Ras G12D.

`C#Cc1c(F)ccc2cc(OC(=O)C(c3ccccc3)N3CCCCC3)cc(-c3ncc4c(N5CCCOCC5)nc(OC[C@@]56CCCN5C[C@H](F)C6)nc4c3F)c12` (stereo partly drawn) [Compound 55, 5-ethynyl-6-fluoro-4-(8-fluoro-2-(((2R,7aS)-2-fluorotetrahydro-1H-pyrrolizin-7a(5H)-yl)methoxy)-4-(1,4-oxazepan-4-yl)pyrido[4,3-d]pyrimidin-7-yl)naphthalen-2-yl 2-phenyl-2-(piperidin-1-yl)acetate]: the IC50 worked out at 2.12 nM at K-Ras G12V and 1.35 nM against K-Ras G12D.

As for `C#Cc1c(F)ccc2cc(OC(=O)N(C)CC(=O)OCC)cc(-c3ncc4c(N5CCCOCC5)nc(OC[C@@]56CCCN5C[C@H](F)C6)nc4c3F)c12` [Compound 71, ethyl N-(((5-ethynyl-6-fluoro-4-(8-fluoro-2-(((2R,7aS)-2-fluorotetrahydro-1H-pyrrolizin-7a(5H)-yl)methoxy)-4-(1,4-oxazepan-4-yl)pyrido[4,3-d]pyrimidin-7-yl)naphthalen-2-yl)oxy)carbonyl)-N-methylglycinate trifluoroacetic acid], the results for the IC50 at K-Ras G12V and at K-Ras G12D were 180 nM and 163 nM, respectively.

As for `C#Cc1c(F)ccc2cc(OC(=O)NCC)cc(-c3ncc4c(N5CCCOCC5)nc(OC[C@@]56CCCN5C[C@H](F)C6)nc4c3F)c12` [Compound 57, 5-ethynyl-6-fluoro-4-(8-fluoro-2-(((2R,7aS)-2-fluorotetrahydro-1H-pyrrolizin-7a(5H)-yl)methoxy)-4-(1,4-oxazepan-4-yl)pyrido[4,3-d]pyrimidin-7-yl)naphthalen-2-yl ethylcarbamate trifluoroacetic acid], the IC50 at K-Ras G12V is 9.28 nM; on K-Ras G12D it was 5.39 nM.

For orientation: IC50 means the concentration that gives 50% inhibition.

The record behind these values is patent US20250019377A1 (JACOBIO PHARMACEUTICALS CO., LTD, priority 2021, published 2025).
